Data: paper PMC5363247 (Angewandte Chemie (International Ed. in English), 2017)

What was measured:
factor Xa [1] = molecular target: T1, factor Xa (Homo sapiens, UniProt P00742); assay: fragment ligation assay, detection via biochemical assay; conditions: read-out: inhibition of factor Xa
factor Xa [2] = molecular target: T1, factor Xa; assay: factor Xa enzyme activity; assay type: biochemical; conditions: initial rates, Michaelis-Menten fit

T1 sequence (P00742 235-488 limits assumed): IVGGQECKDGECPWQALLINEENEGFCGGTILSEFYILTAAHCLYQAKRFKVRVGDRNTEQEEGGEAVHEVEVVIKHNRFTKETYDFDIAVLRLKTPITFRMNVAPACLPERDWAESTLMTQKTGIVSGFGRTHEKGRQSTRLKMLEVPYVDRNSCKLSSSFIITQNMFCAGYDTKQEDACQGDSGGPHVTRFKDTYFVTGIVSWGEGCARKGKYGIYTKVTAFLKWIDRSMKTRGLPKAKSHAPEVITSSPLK
T1 sequence (P00742 41-179 partner limits assumed): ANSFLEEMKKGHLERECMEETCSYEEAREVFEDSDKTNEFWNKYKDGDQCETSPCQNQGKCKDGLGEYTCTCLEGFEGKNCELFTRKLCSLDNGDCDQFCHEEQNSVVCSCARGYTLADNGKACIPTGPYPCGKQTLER

inhibition at 285 µM (factor Xa [1])	K M of fluorogenic substrate (factor Xa [2])	Compound
20%	–	N=C(N)c1ccc(CN)cc1 [compound 14, 4‐Aminomethylbenzamidine]
–	76 µM	7‐(N‐Boc‐leucinyl‐glycinyl‐arginyl)‐7‐amino‐4‐methylcoumarin
